Data: patent US20240109855A1, “ANTI-QUORUM SENSING, ANTI-BIOFILM, AND INFLAMMATION ATTENUATING COMPOUNDS, COMPOSITIONS, AND METHODS OF USING SAME” (priority 2021, published 2024)
“Also recorded” adds a separate entry of the source. Where two headings read alike, the source gives them in different places.

Legend:
[1] = test system: Chromobacterium violaceum (CV026); assay: Quorum sensing inhibition test with bio-reporter CV026 (TLC overlay); type: cell-based; conditions: for Degree of QSI of CV026: Table 1, coumaperine derivatives, 40 mM in ~20 μL acetonitrile dried on TLC plate, overnight, color intensity; for QSI activity against CV026, in words: running text; for Degree of QSI of CV026: key: −: no inhibition; +: low inhibition; ++: medium inhibition; +++: strong inhibition; for Degree of quorum sensing inhibition (QSI), CV026: key: −: no inhibition; +: low inhibition; ++: medium inhibition; +++: strong inhibition
In short: (§1)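 Compounds (40 mM in acetonitrile, 20 μl) were spotted on TLC and overlaid with soft agar reporter cultures, incubated overnight at 30 °C. CV026 was in LB with 500 nM 3-oxo-C6 (purple pigment), and KYC55 was in AT medium with 5 nM 3-oxo-C8 and 60 μg/ml X-gal (blue). Inhibition zone diameter was measured.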

Streptococcus sobrinus = assay: Diffusion discs test, Streptococcus sobrinus; type: cell-based; parameters: key: —: no activity; conditions: discs with 40 mM of compound in 20 μl solvent
Description: (§2) All derivatives were dissolved in acetonitrile to a final concentration of 40 mM. Twenty (20) μl were loaded onto Whatman filter paper discs and dried. Bacillus subtilis, Staphylococcus aureus, and Acinetobacter baumannii were grown in LB (Lenox) O.N. One hundred (100) μl from the starter culture was plated on LB agar (Miller) dishes. Streptococcus sobrinus, and Streptococcus mutans grown in Brain Heary Infusion (BHI, Himedia) O.N. were similarly plated on BHI agar dishes. Discs were laid and incubated O.N. in 37° C. and the diameter of inhibition of bacterial growth was measured.

[2] = test system: Agrobacterium tumefaciens (KYC55); assay: Quorum sensing inhibition test with bio-reporter KYC55 (TLC overlay); type: cell-based; conditions: for Degree of QSI of KYC55: Table 1, coumaperine derivatives, 40 mM in ~20 μL acetonitrile dried on TLC plate, overnight, color intensity; for QSI activity against KYC55, in words: running text; for Degree of QSI of KYC55: key: −: no inhibition; +: low inhibition; ++: medium inhibition; +++: strong inhibition; for Degree of quorum sensing inhibition (QSI), KYC55: key: −: no inhibition; +: low inhibition; ++: medium inhibition; +++: strong inhibition
In short: as §1

L428 cells [3] = conditions: cited from earlier work
[4] = test system: gram-positive and gram-negative bacteria; assay: Antibacterial activity, overall statement (diffusion discs test); type: cell-based; conditions: for Antibacterial: Table 6 summary; for Antibacterial activity, in words: running text
Description: as §2
The antibacterial activities of derivatives showing QSI are outlined in Table 4. […] Similar to that idea, synthetic derivatives of furanon (product of marine algae) shown in-vivo QSI activity without antibacterial activity followed by immune response of the infected animal. Phenolic compounds decrease QS and virulence in PA01 and Chromobacterium violaceum. There is increasing number of studies, searching for compounds that targeting non-vital processes to combat bacteria.

Streptococcus mutans = assay: Diffusion discs test, Streptococcus mutans; type: cell-based; parameters: key: —: no activity; conditions: discs with 40 mM of compound in 20 μl solvent
Description: as §2

NF-kB = assay: NF-kB-luciferase reporter gene assay in L428 cells; type: cell-based, human; conditions: Table 6 summary; note: key: +: active; −: inactive
Description: FIG. 7 includes a vertical bar graph showing a dose response of NF-kB activation according to an NF-kB reporter gene luciferase assay. L428 cells were stably transfected with the NF-kB luciferase reporter gene. The cells were incubated with the compounds at different concentrations for 2 hours. […] The results represent the percentage of NF-kB activation as compared to vehicle (DMSO) treated cells. All samples were normalized to protein concentration. Mean+SD, Two-way ANOVA and Tukey's multiple comparison test. 95% confidence interval (p-values *≤0.0332, **≤0.0021, ***≤0.0002).
L428 cells stable transfectants with the luciferase NF-kB-Luc reporter gene were generated previously described (Ozer et al., 2009), and were maintained in 500 μg/ml of G418 (G418 disulfate salt, Sigma-Aldrich). The cells (5×10^5 /well in triplicate) were incubated for 2 hrs. in 1 ml of medium containing the solvent (DMSO) or different concentrations of the molecules tested. Cells were then harvested, lysed, and monitored by a luciferase reporter assay kit (Promega) according to the manufacturer's instructions. Measurements were carried out using a luminometer (Promega, GLOMAX™ 20/20 Luminometer). Data were normalized to the protein concentration in each lysate as measured by the Bradford method (BioRad) and normalized to the control. Experiments were repeated at least three times.

Bacillus subtilis = assay: Diffusion discs test, Bacillus subtilis; type: cell-based; parameters: key: —: no activity; conditions: discs with 40 mM of compound in 20 μl solvent
Description: as §2

L428 cells [5] = assay: in vitro
Description: (§3) The human Hodgkin's Lymphoma derived L428 cell line was used as a model. The cells were grown in RPMI Medium 1640 with 10% FBS, 1% Glutamine and pen-strep (all from Biological Industries, Israel). […] Thirty thousand (30,000) cells/well were placed in 96-well plates with the coumaperine derivatives at different concentrations or with vehicle (DMSO) at a final volume of 200 μl. The plates were incubated for 48 hrs. at 37° C. and 5% CO2 followed by the addition of 50 μl of the XTT reagent tetrazolium-formazan, (Biological Industries, Israel) was added for 2 hrs. at 37° C., 5% CO2. In living cells, mitochondria […] the tetrazolium-formazan salt, thereby generating a color absorbing product at 450 nm. Absorbance was measured at 450 nm and 650 nm in an enzyme-linked immunosorbent assay (ELISA) plate reader (Multiskan Spectrum, Version 1.2), and recorded. Absorption values at 650 nm were subtracted from the blank and the 450 nm values. The results were normalized to the control (treated with DMSO).
(§4) Viability was determined in triplicate in two independent tests. The results were normalized to vehicle (DMSO) treated cells, (100% viability). Mean+SD.

in vitro = conditions: human, LC50
Description: as §3, §4

Acinetobacter baumannii = assay: Diffusion discs test, Acinetobacter baumannii; type: cell-based; parameters: key: —: no activity; conditions: discs with 40 mM of compound in 20 μl solvent
Description: as §2

Staphylococcus aureus = assay: Diffusion discs test, Staphylococcus aureus; type: cell-based; parameters: key to Staphylococcus aureus, diameter of growth inhibition: —: no activity; conditions: discs with 40 mM of compound in 20 μl solvent
Description: as §2

[6] = test system: quorum sensing (CV026 and KYC55); assay: Quorum sensing inhibition, overall statement over the bio-reporter bacteria; type: cell-based; conditions: for QSI: Table 6 summary; for QSI activity overall, in words: running text
Description: TLC preparation: all derivatives were dissolved in 100% acetonitrile to a concentration of 40 mM. Then placed 20 μlon the same spot on the TLC and let the solvent evaporate before use. CV026: few colonies were transferred to liquid LB (Lenox) for overnight incubation at 30° C. in a 45 degree in orbital shaker. At the O.D. 0.8 3 ml of the starter was added to preheated soft LB agar containing 500 nM of 3-oxo-C6 (Sigma-Aldrich). The mixture was then loaded on the TLC in a glass plate for O.N. incubation in 30° C. The next day inhibition zone was measured, while QS is taking place bacteria produce purple pigment, and when QS is inhibited no pigment is produced. KYC55 (pJZ372) (pJZ384) (pJZ410): 20 μl from the frozen stock into 25 ml AT media (AT buffer×20: 1.57 M KH2PO4 pH=7.3. AT salts mix×20: 300 mM (NH4)2SO4, 13 mM MgSO4, 1.4 mM CaCl2, 0.4 mM FeSO4·7H2O, 0.26 mM MnSO4·H2O. AT media: 50 ml×20 AT-buffer, 50 ml×20 AT-salts, 10 ml 50% (w/v) glucose, add 890 ml to final volume of 1 liter.) For O.N. at 30° C. in an orbital shaker. Into preheated water agar with 25 ml AT-buffer, and 60 μg/ml X-gal and 5 nM 3-oxo-c8 (both from Sigma-Aldrich) 25 ml of the starter was added. Then, that mixture was loaded on the TLC in glass plate for O.N. incubation in 30° C. The next day the inhibition zone was measured. The bacteria produce blue pigment during QS and when QS is inhibited no pigment is produced. KYC55 (pJZ372) (pJZ384) (pJZ410) preservation in tetracycline (1 μg/ml), spectinomycin (100 μg/ml), gentamicin (100 μg/ml) (all antibiotics from Sigma Aldrich) in AT media O.N. then centrifuged and suspend in 15% glycerol frozen and maintained at −80° C.
All the synthesized compounds were evaluated for quorum sensing inhibition against two bioreporter bacteria strains, Chromobacterium violaceum (CV026) and Agrobacterium tumefaciens (KYC55) and the results are summarized in Table 1.

PA01 = assay: Diffusion discs test, PA01; type: cell-based, P. aeruginosa; parameters: key: —: no activity; conditions: discs with 40 mM of compound in 20 μl solvent
[7] = Table 2, piperlongumine derivatives

Compound	Degree of QSI of CV026 [1]	QSI activity against CV026, in words [1]	Streptococcus sobrinus, diameter of growth inhibition (Streptococcus sobrinus)	Degree of QSI of KYC55 [2]	QSI activity against KYC55, in words [2]	Antibacterial [4]	Antibacterial activity, in words [4]	Streptococcus mutans, diameter of growth inhibition (Streptococcus mutans)	Anti-inflammatory (NF-kB)	Bacillus subtilis, diameter of growth inhibition (Bacillus subtilis)	Cytotoxic (L428 cells [5])	CC50 at 48 h (in vitro) [µM]	Acinetobacter baumannii, diameter of growth inhibition (Acinetobacter baumannii)	Staphylococcus aureus, diameter of growth inhibition (Staphylococcus aureus)	QSI [6]	QSI activity overall, in words [6]	PA01, diameter of growth inhibition (PA01)	also measured
O=C(/C=C/C=C/c1ccccc1)N1CCCCC1 [CP-9, (2E,4E)-5-phenyl-1-(piperidin-1-yl)penta-2,4-dien-1-one]	++	moderate	9 mm	+	low	+	showed antibacterial activity; also recorded: inhibit bacterial growth of the three gram-positive bacteria; also recorded: some antibiotic activity	—	+	8 mm	+	24.7	—	9 mm	+	anti QS activity	—	Cytotoxicity, previously reported (L428 cells [3]): cytotoxic; CC50 (L428 cells [5]; human, 48 h): 24.7 µM
O=C(/C=C/C=C/c1ccc(F)cc1)N1CCCCC1 [CP-154, (2E,4E)-5-(4-fluorophenyl)-1-(piperidin-1-yl)penta-2,4-dien-1-one]	+++	highly active	9 mm	+++	highly active	+	showed antibacterial activity	—	+	7 mm	+	46.8	—	11 mm	+	anti QS activity	—	Cytotoxic activity, in words (L428 cells [5]): cytotoxic
O=C(/C=C/C(=O)N1CCCCC1)c1ccc(F)c(F)c1 [CP-287, (E)-3-(benzoyl 3,4-difluoro)-1-(piperidin-1-yl)prop-2-en-1-one]			9 mm			−	showed antibacterial activity	—	+	—	+		—	—	+		—	CC50 (L428 cells [5]; read-out: LC50, L428 cells, 48 hrs): 284 µM; CC50 (L428 cells [5]; read-out: LC50, Table 5, L428 cells, 48 hrs): 284 µM
O=C(/C=C/C1CCCCC1)N1CCCCC1 [CP-295, (E)-cyclohexyl-1-(piperidin-1-yl)prop-2-en-1-one]	++	moderate activity	12 mm	++	moderate activity		showed antibacterial activity	—		—		408	—	—			—	
O=C1C=CCCN1C(=O)/C=C/c1cc(O)c(O)c(O)c1 [PL-25, trihydroxy piperlongumine]		inactive	—		moderate inhibition		showed antibacterial activity	—		—		46.3	—	9 mm			—	Degree of quorum sensing inhibition (QSI), CV026 [1, 7]: −; Degree of quorum sensing inhibition (QSI), KYC55 [2, 7]: ++
